Data published in US11124479B2, “Oligopyrroles as antagonists of islet amyloid polypeptide oligomerization” (New York University, priority 2017, dated 2021).

Columns and labels:
[1] = biological target: T1, islet amyloid polypeptide (IAPP) (Homo sapiens, UniProt P10997); assay: Seed-catalyzed ThT kinetic assay of IAPP aggregation; assay type: biochemical; details: 15 μM IAPP; for relative t50 of seed catalyzed fibrillation: seed 5% v/v, lipid membrane DOPG:DOPC 3:7 750 μM; for factor of retardation of seed catalyzed aggregation kinetics: seed 10% v/v
T1 construct: IAPP is a 37 residue neuropancreatic hormone peptide; purchased Anaspec (Fremont, Calif.)
T1 sequence (P10997 34-70 limits assumed): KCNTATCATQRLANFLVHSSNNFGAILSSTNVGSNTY
Description: Seeds of IAPP were prepared by incubating 100 μM of IAPP in phosphate buffer at room temperature and aged for 24 hours. The formation of fibers was confirmed by TEM and ThT stain before storage at −20° C. until use. For the seed catalyzed aggregation kinetics of IAPP, 10% (based on the monomeric IAPP, v/v) seeds were added with ThT in phosphate buffer to the 96-well plate. The aggregation was initiated by the addition of fresh IAPP followed by gentle mixing. Kinetic assays in the presence of the compounds of the invention were conducted under the same conditions except that the compounds were added from a stock solution (1 mM or 10 mM in DMSO) to keep the final concentration of DMSO less than 1.0% (v/v).
The effect of ADH-101 on preformed IAPP oligomers has been investigated. ADH-101 was added during the lag phase of IAPP amyloid kinetics at 1 h and 3 h at an equimolar ratio (IAPP:ADH-101, 1:1, 10 μM IAPP). […] Additionally, ADH-101 has no effect on IAPP amyloid fibers. No change in ThT fluorescence intensity was observed when ADH-101 added to the fibers (FIG. 4, black arrow). […] The kinetics of IAPP fibrillation is dominated by the secondary nucleation which is reflected in the disappearance of the lag phase (FIG. 13). The t50 for the seed catalyzed (5%, v/v) aggregation kinetics of 15 μM IAPP (lipid membrane, DOPG:DOPC, 3:7, 750 μM) is 0.55±0.13 h which is […] faster than the de novo conditions (t50=1.55±0.20 h, FIGS. 13A and 13B). ADH-101 delays the seed catalyzed fibrillation by a relative t50 that is 1.8 fold and 2.6 fold at stoichiometric ratios of 1:1 and 2:1 (ADH-101:IAPP), respectively (FIGS. 13A and 13B). The t50 for the seed catalyzed (10%, v/v) aggregation of 15 μM IAPP is 0.86±0.19 h, which is ˜10 fold faster than the de novo conditions (t50=8.7±0.8 h, FIGS. 13C and 13D). ADH-101 retards the seed catalyzed aggregation kinetics of IAPP by factors of 1.4, 5.4, and 7.1 at stoichiometric ratios of 1:0.1, 1:0.5, and 1:1 (IAPP:ADH-101), respectively (FIGS. 13C and 13D). It is postulated that ADH-101 modulates IAPP conformation and attenuates its ability for oligomerization and fibrillation.

[2] = biological target: T2, IAPP-induced lipid membrane leakage (Homo sapiens, UniProt P10997); assay: Fluorescein-based liposome leakage assay; assay type: biochemical
T2 construct: IAPP is a 37 residue neuropancreatic hormone peptide; purchased Anaspec (Fremont, Calif.)
T2 sequence (P10997 34-70 limits assumed): T1 sequence (P10997 34-70 limits assumed)
Excerpt: Colocalization of IAPP at the mitochondrial membrane and the subsequent membrane poration is considered to be one of the potential contributors to β-cell toxicity. Therefore, a liposome leakage assay could serve as a surrogate marker for IAPP induced cytotoxicity (see Last, N. B.; Miranker, A. D. Proc. Natl. Acad. Sci. U.S.A. 2013, 110, 6382-6387; and Last, N. B.; Rhoades, E.; Miranker, A. D. Proc. Natl. Acad. Sci. U.S.A. 2011, 108, 9460-9465). A previously reported fluorescein-based liposome leakage assay was employed to test the effect of ADH-101 on membrane associated α-helical intermediates of IAPP. Briefly, fluorescein-dextran conjugate (MW=70 kDa) was encapsulated in unilamaller extruded lipid vesicles (DOPG:DOPC, 3:7, d=100 nm). The size of fluorescein-dextran conjugate allows it to stay inside the lipid vesicles during IAPP mediated membrane poration. The leakage kinetics was probed by the quenching of fluorescence using a fluorescent quencher, DPX (p-xylene-bis-pyridinium […]). The kinetic profiles of leakage are single exponential with a decrease in fluorescence as a function of time. The leakage reaction was initiated by introducing 200 μM liposome into a solution of 4 μM IAPP and 6 mM of DPX. The introduction of the excess ionic concentration by DPX was counterbalanced by adjusting the buffer concentration. The kinetics of the leakage mediated by IAPP yielded a single exponential profile with a leakage rate of 7.3±1.1×10^−3 s^−1 (FIG. 5A).
The kinetics of liposome leakage induced by IAPP was monitored on QuantaMaster C-61 fluorescence spectrometer (Photon Technology International, Edison, N.J.) at 25° C. […] The stock solution of IAPP used in the measurements was kept in water at a concentration of 1 mM. The stock solution of water soluble quencher, DPX (p-xylene-bis-pyridinium bromide) was prepared in buffer (100 mM KCl, 50 mM NaPi, pH 7.4) at a concentration of 100 mM. The small molecules used in the leakage assay were dissolved in DMSO with a concentration range of 10-20 mM. The final concentration of dye encapsulating liposome, DPX, human IAPP, and small molecules were 200, 6000, 4, and 4 μM respectively. The final buffer concentration was corrected using higher concentration of buffer to keep the osmolality balanced. […] To determine the leakage rate constant, first the fluorescence was normalized and corrected by subtracting it from normalized fluorescence of control reaction. The corrected fluorescence was fit using equation given below (using Origin 9.1). All the experiments were performed in triplicate and the error values presented are standard deviations. a*exp(−b*x)+c (2) a=amplitude from 100% unleaked to 0% leaked c=final fraction of unleaked liposome y=change in fluorescence b=leakage rate constant

Compound: CCOC(=O)c1cc(NC(=O)c2cc(NC(=O)c3cc([N+](=O)[O-])cn3CC(C)C)cn2CC(C)C)cn1CCC(=O)O [ADH-101]
- relative t50 of seed catalyzed fibrillation ([1]; ratio 1:1 (ADH-101:IAPP)): 1.8 fold
- relative t50 of seed catalyzed fibrillation ([1]; ratio 2:1 (ADH-101:IAPP)): 2.6 fold
- factor of retardation of seed catalyzed aggregation kinetics ([1]; ratio 1:0.1 (IAPP:ADH-101)): 1.4
- factor of retardation of seed catalyzed aggregation kinetics ([1]; ratio 1:0.5 (IAPP:ADH-101)): 5.4
- factor of retardation of seed catalyzed aggregation kinetics ([1]; ratio 1:1 (IAPP:ADH-101)): 7.1
- leakage rate slower than the control reaction (IAPP only) ([2]; 4 μM IAPP, 4 μM compound, 200 μM liposome): ~3.5 times
- effect on the integrity of the liposomes ([2]; ADH-101 alone, 4 μM, no IAPP): did not have any effect
